In test [1] the test system is Ba/F3 EGFR L858R/T790M/C797S. Briefly: EGFR expression after treatment, western blot. Particulars: 0.5, 1.2 and 5 μM, 4 or 24 hours, FIG. 7. In kind it is cell-based. The method, then:
For the Ba/F3 EGFR L858R/T790M/C797S cell line, Ba/F3 naive cells purchased from DSMZ were transfected with EGFR L858R/T790M/C797S […] DNA using lipofectamine, and a cell line selected using 1 μg/ml puromycin for 2 weeks was used. Here, the culture medium used was RPMI-1640 with 10% FBS and 1% penicillin streptomycin. The NCI-H2228 and CAL-27 cell lines were purchased from ATCC, and for culturing RPMI-1640 with 10% FBS and 1% penicillin streptomycin was used for NCI-H2228, while for CAL-27 DMEM with 10% FBS and 1% penicillin streptomycin was used.
As needed, culturing was performed for 1 hour with Cyclohexamine at 30 μg/mL concentration, followed by 15 minutes EGF treatment at a concentration of 100 ng/mL. For the phosphoarray experiment, DYRK1a siRNA was reacted with HEK293T cells for 48 hours at 30 nM concentration, confirming inhibition of DYRK1a expression in the cells. These were used as the control for the main experiment.
Background: In western blotting, separated proteins are transferred to a membrane and probed.

The test system of test [2] is Ba/F3 EGFR L858R/T790M/C797S cells. Briefly: Cell growth inhibition, celltiterglo. To be noted: 72 hours, concomitant use with Osimertinib, compared with same amount of Harmine, FIG. 8. It is filed as cell-based. On the procedure:
The cells were treated for 72 hours using a serially diluted compound. The cell activity inhibition results for the compounds were measured using celltiterglo.
In general terms: ATP-based viability assays read luminescence as a measure of living cells.

The subject of test [3] is NCI-H1975 lung cancer cells. Description: Anticancer effect in mouse model with NCI-H1975 lung cancer cells. In kind it is in vivo, Balb/c Nude Mice. The method, then:
The NCI-H1975 cell line was purchased from the Institute of Biochemistry and Cell Biology (Shanghai Institutes for Biological Sciences, CAS). Cells were kept in RPMI-1640 containing 10% FBS, and cultured in a 37° C. humidified cell culture incubator at 5% CO2. All animal experiments were carried out according to the Animal Use and Management Guidelines of Shanghai Medicilon Inc. […] Tumor size and animal body weight were measured twice weekly, and clinical symptoms were recorded daily. The mice will be administered individually according to most recent body weight. The tumors were measured using calipers using two measurements, length (a) and width (b). The volume of the tumors was calculated individually as follows, from the two measured diameters of the tumors: tumor volume (mm^3)=(a×b^2)/2.

For another test, the system named is PC-9 cell line. Briefly: Lung cancer cell colony formation inhibition. Particulars: concomitant treatment with Gefitinib or Osimertinib, vs single treatment or Harmine, from 10 days, FIG. 1. It is filed as cell-based, human. From the text: Specifically, the PC-9 cell line was purchased from the ECACC (European Collection of Authenticated Cell Cultures), and RPMI-1640 with 10% FBS and 1% penicillin streptomycin was used. PC-9GR cells cultured with slow and sustained exposure to Gefitinib (manufactured by Selleckchem) were serially cultured with 1 μmol/L Gefitinib.
The remaining colony-forming cells were fixed with methanol (1%) and formaldehyde (1%), then dyed with 0.5% crystal violet before photographing each well.

The target in another test is T1, MAPKAPK2 (Homo sapiens, UniProt P49137).
T1 construct: purchased DiscoverX scanMAX Kinase analysis panel
Briefly: scanMAX Kinase analysis panel (DiscoverX). In kind it is binding. Particulars: 1 μM in DMSO. From the text:
(§1) [(Example Compound−Positive Control)/(Negative Control−Positive Control)×100]

In a further test the target is T2, CSNK1A1 (Homo sapiens, UniProt P48729).
T2 construct: purchased DiscoverX
Description: scanMAX Kinase analysis panel (DiscoverX). It is filed as binding. Particulars: 1 μM in DMSO.
Excerpt: as §1

The next test addresses T3, CAMK2D (Homo sapiens, UniProt Q13557).
T3 construct: purchased DiscoverX
Briefly: scanMAX Kinase analysis panel (DiscoverX). It is filed as binding. Particulars: 1 μM in DMSO.
Excerpt: as §1

The target in another test is T4, ERK5 (Homo sapiens, UniProt Q13164).
T4 construct: purchased DiscoverX scanMAX Kinase analysis panel
Description: scanMAX Kinase analysis panel (DiscoverX). Particulars: 1 μM in DMSO. In kind it is binding.
Excerpt: as §1

A further test addresses T5, CAMKK2 (Homo sapiens, UniProt Q96RR4).
T5 construct: purchased DiscoverX
Description: scanMAX Kinase analysis panel (DiscoverX). Particulars: 1 μM in DMSO. In kind it is binding.
Excerpt: as §1

For the next test, the target named is T6, JNK1 (Homo sapiens, UniProt P45983).
T6 construct: purchased DiscoverX
Briefly: scanMAX Kinase analysis panel (DiscoverX). It is filed as binding. To be noted: 1 μM in DMSO.
Excerpt: as §1

A further test has as its target T7, LTK (Homo sapiens, UniProt P29376).
T7 construct: purchased DiscoverX
Briefly: scanMAX Kinase analysis panel (DiscoverX). In kind it is binding. Particulars: 1 μM in DMSO.
Excerpt: as §1

The next test addresses T8, INSR (Homo sapiens, UniProt P06213).
T8 construct: purchased DiscoverX scanMAX Kinase analysis panel
Description: scanMAX Kinase analysis panel (DiscoverX). In kind it is binding. Particulars: 1 μM in DMSO.
Excerpt: as §1

A further test concerns the target T9, PHKG2 (Homo sapiens, UniProt P15735).
T9 construct: purchased DiscoverX
Description: scanMAX Kinase analysis panel (DiscoverX). In kind it is binding. Particulars: 1 μM in DMSO.
Excerpt: as §1

For test [4], the target named is T10, JAK1 (JH2domain-psudokinase) (Homo sapiens, UniProt P23458).
T10 construct: JAK1 (JH2domain-pseudokinase); purchased DiscoverX scanMAX Kinase analysis panel
Briefly: scanMAX Kinase analysis panel (DiscoverX). It is filed as binding. To be noted: 1 μM in DMSO.
Excerpt: as §1

In another test the target is T11, cSNK1D (Homo sapiens, UniProt P48730).
T11 construct: purchased DiscoverX
Briefly: scanMAX Kinase analysis panel (DiscoverX). In kind it is binding.
Excerpt: as §1

A further test deals with T12, LRRK2 (Homo sapiens, UniProt Q5S007).
T12 construct: purchased DiscoverX scanMAX Kinase analysis panel
Briefly: scanMAX Kinase analysis panel (DiscoverX). It is filed as binding. To be noted: 1 μM in DMSO.
Excerpt: as §1

A further test deals with T13, CHEK2 (Homo sapiens, UniProt O96017).
T13 construct: purchased DiscoverX
T13 sequence (O96017 whole entry): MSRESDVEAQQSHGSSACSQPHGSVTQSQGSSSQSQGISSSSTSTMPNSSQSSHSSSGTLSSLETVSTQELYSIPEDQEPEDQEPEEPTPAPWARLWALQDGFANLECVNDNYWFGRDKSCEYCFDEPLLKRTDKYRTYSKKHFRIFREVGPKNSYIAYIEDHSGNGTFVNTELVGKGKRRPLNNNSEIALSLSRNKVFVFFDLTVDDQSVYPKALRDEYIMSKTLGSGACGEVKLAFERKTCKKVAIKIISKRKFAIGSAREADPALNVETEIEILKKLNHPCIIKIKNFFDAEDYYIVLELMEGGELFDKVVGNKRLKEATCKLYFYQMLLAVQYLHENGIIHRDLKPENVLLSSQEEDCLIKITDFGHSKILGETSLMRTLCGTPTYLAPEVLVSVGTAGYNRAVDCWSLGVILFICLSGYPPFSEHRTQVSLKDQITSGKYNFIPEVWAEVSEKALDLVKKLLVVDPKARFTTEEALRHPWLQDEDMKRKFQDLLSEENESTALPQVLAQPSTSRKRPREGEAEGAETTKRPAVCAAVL
Briefly: scanMAX Kinase analysis panel (DiscoverX). In kind it is binding. Particulars: 1 μM in DMSO.
Excerpt: as §1

In a further test the target is T14, GAK (Homo sapiens, UniProt O14976).
T14 construct: purchased DiscoverX
Briefly: scanMAX Kinase analysis panel (DiscoverX). In kind it is binding. To be noted: 1 μM in DMSO.
Excerpt: as §1

A further test addresses T15, PAK2 (Homo sapiens, UniProt Q13177).
T15 construct: purchased DiscoverX
Briefly: scanMAX Kinase analysis panel (DiscoverX). In kind it is binding. Particulars: 1 μM in DMSO.
Excerpt: as §1

A further test deals with T16, MYLK (Homo sapiens, UniProt Q15746).
T16 construct: purchased DiscoverX
T16 sequence (Q15746 whole entry): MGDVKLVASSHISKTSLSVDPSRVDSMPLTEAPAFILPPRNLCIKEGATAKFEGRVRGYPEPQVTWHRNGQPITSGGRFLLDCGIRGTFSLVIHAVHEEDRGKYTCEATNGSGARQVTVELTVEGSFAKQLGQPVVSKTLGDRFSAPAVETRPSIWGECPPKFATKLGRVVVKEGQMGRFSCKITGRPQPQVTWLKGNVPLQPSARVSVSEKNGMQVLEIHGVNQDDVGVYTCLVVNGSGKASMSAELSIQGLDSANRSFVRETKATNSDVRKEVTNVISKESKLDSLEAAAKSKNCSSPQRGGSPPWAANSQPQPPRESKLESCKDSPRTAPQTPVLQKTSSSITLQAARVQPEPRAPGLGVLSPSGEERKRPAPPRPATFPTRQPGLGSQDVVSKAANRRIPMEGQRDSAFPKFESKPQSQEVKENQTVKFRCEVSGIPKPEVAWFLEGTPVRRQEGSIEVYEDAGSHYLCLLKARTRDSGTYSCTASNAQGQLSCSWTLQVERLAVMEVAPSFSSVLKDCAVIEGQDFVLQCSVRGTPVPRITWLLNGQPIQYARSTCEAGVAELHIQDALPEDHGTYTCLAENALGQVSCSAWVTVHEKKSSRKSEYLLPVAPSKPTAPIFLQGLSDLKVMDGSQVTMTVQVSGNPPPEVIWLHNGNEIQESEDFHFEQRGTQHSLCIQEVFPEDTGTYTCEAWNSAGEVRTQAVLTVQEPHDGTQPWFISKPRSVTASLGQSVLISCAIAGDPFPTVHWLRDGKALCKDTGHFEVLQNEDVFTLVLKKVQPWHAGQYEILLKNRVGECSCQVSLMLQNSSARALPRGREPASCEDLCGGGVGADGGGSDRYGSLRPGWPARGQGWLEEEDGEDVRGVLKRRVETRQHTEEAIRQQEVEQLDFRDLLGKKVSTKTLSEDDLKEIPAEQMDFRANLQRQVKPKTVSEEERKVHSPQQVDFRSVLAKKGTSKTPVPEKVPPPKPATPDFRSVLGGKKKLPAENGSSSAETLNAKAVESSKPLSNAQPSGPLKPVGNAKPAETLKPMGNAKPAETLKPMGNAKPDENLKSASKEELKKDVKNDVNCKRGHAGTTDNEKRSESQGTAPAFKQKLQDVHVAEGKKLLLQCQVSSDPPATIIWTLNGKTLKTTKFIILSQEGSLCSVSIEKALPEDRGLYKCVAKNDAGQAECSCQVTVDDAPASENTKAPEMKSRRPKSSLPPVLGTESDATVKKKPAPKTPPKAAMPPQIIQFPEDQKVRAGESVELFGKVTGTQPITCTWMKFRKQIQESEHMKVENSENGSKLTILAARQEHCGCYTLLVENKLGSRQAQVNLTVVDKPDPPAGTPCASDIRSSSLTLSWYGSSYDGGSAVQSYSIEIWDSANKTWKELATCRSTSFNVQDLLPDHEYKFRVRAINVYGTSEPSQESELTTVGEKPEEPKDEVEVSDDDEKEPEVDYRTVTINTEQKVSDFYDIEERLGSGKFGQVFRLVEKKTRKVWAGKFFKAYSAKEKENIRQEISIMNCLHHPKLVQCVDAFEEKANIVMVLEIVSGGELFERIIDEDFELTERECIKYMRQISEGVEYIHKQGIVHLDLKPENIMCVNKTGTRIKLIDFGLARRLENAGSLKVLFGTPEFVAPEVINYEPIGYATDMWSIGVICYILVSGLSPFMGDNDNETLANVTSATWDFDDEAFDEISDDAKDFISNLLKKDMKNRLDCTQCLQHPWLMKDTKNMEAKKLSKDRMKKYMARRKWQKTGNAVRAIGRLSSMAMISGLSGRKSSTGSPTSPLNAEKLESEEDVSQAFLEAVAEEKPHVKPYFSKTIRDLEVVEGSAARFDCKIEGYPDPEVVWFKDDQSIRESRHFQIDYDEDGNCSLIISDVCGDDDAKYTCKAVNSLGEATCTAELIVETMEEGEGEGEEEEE
Briefly: scanMAX Kinase analysis panel (DiscoverX). Particulars: 1 μM in DMSO. In kind it is binding.
Excerpt: as §1

A further test addresses T17, JNK2 (Homo sapiens, UniProt P45984).
T17 construct: purchased DiscoverX scanMAX Kinase analysis panel
Description: scanMAX Kinase analysis panel (DiscoverX). In kind it is binding. Particulars: 1 μM in DMSO.
Excerpt: as §1

The target of another test is T18, PHKG1 (Homo sapiens, UniProt Q16816).
T18 construct: purchased DiscoverX
Briefly: scanMAX Kinase analysis panel (DiscoverX). In kind it is binding. Particulars: 1 μM in DMSO.
Excerpt: as §1

The next test deals with EMT6 breast cancer. Description: Anticancer effect in EMT6 breast cancer transplant mouse model. It is filed as in vivo, female C57BL/6 mouse. Particulars: singular treatment, 45, 60, 75 mg/kg po BID, FIG. 6a. On the procedure: The 3LL cells were cultured in Hams F10:L15=3:7 culture medium, the EMT-6 cells were cultured in Waymouth's MB 752/1 culture medium, and the MC38 cells were cultured in a DMEM culture medium with 10% FBS and 1% penicillin streptomycin, at 37° C. in a 5% CO2 humidified cell culture incubator.
All animal tests were carried out through WuXi AppTec.

Experimental findings from patent US20220218715A1, “NOVEL USE OF PYRROLO-PYRIDINE DERIVATIVE COMPOUND FOR PREVENTION AND/OR TREATMENT OF CANCER” (VORONOI CO., LTD., priority 2019, published 2022) are described below.

SMILES strings stand for the structures.

T8 sequence (P06213 28-1382): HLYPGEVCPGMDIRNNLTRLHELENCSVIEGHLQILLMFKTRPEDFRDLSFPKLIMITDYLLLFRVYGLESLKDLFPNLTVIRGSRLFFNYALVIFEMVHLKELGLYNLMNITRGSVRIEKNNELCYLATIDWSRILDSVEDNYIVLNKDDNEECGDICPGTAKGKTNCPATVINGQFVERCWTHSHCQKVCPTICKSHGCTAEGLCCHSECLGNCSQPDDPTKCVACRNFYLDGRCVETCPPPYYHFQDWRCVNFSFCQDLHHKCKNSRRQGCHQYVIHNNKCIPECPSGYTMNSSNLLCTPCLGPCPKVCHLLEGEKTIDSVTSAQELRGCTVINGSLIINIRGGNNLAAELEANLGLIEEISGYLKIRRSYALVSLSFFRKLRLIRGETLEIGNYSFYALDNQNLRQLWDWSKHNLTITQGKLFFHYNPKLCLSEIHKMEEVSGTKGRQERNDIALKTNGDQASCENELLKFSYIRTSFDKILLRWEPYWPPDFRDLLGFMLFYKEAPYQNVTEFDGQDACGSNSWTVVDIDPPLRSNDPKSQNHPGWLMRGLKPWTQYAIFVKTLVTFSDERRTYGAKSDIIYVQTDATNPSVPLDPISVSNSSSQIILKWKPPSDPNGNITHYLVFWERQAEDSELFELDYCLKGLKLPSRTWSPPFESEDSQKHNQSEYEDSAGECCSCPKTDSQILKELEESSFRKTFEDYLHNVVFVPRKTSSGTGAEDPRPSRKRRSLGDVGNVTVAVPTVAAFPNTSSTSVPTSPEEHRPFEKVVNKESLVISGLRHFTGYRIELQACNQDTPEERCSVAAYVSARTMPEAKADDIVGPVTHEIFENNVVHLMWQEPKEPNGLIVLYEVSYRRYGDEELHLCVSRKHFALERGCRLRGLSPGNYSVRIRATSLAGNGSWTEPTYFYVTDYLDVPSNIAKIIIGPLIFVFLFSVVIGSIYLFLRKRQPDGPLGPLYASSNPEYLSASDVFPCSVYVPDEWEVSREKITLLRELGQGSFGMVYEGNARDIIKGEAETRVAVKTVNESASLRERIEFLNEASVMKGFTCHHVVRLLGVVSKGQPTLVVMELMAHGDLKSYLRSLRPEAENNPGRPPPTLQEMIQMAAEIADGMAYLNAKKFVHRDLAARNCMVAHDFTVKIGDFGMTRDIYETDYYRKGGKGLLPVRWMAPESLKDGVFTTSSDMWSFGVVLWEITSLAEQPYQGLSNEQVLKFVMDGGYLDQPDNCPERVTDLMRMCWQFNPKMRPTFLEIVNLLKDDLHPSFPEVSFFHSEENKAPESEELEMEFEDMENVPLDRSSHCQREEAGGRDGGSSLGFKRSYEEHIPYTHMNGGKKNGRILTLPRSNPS
T7 sequence (P29376 17-864): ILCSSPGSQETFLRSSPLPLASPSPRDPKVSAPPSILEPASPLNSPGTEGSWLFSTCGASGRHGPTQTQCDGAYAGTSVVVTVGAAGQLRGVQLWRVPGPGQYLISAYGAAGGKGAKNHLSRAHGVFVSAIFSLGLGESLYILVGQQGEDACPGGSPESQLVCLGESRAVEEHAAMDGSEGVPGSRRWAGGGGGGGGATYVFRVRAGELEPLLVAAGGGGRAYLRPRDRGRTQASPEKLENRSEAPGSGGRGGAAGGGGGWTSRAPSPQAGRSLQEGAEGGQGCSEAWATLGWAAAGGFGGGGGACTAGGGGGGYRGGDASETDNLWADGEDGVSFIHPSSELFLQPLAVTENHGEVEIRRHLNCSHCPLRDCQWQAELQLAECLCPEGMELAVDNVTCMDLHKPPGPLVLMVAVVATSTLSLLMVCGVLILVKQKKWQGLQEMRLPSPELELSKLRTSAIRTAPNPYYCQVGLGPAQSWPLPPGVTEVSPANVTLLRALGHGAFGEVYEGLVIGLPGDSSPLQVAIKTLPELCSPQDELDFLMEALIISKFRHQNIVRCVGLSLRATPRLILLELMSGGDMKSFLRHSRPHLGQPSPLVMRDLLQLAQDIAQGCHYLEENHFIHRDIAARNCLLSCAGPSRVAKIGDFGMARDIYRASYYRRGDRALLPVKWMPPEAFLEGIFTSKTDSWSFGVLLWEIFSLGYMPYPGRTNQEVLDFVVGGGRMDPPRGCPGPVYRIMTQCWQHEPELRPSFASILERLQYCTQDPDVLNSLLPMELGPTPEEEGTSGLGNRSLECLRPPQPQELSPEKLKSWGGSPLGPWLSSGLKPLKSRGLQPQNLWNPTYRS
T17 sequence (P45984 whole entry): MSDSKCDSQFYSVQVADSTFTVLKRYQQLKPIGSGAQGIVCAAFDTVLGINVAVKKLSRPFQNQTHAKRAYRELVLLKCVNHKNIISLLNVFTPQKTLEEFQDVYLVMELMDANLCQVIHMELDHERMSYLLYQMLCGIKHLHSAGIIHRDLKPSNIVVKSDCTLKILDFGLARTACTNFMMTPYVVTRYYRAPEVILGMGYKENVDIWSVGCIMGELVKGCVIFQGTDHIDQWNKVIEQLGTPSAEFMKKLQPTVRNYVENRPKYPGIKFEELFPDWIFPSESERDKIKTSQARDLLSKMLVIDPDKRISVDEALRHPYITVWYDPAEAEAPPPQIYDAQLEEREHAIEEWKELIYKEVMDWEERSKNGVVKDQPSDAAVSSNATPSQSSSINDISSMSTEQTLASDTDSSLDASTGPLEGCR

Turning to `CCNc1cc(Nc2ccc(C(=O)N3CCC(N4CCOCC4)CC3)cc2OC)nc2[nH]cc(C(F)(F)F)c12` [Compound 1, (4-((4-(ethylamino)-3-(trifluoromethyl)-1H-pyrrolo[2,3-b]pyridine-6-yl)amino)-3-methoxyphenyl) (4-morpholinopiperidine-1-yl)methanone], the EGFR expression entry in test [1] is “reduced EGFR expression”. In test [2], the “cell growth inhibition effect” value is listed as “improved cell growth inhibition effect compared to treatment with the same amount of Harmine”. Further, the anticancer effect entry in test [3] (Compound 1 40 or 60 mg/kg concomitant with Osimertinib 3.5 mg/kg, PO QD, vs Osimertinib alone, FIG. 5) was “substantially reduced lung cancer (NCI-H1975) cells”; in test [3] (singular treatment with Compound 1, 60 mg/kg PO QD) it was “no anticancer effect”. Besides, the colony formation inhibition result in the test with PC-9 cell line was “substantially inhibit formation of lung cancer cell colonies”. For the same compound, the inhibition at 1 µM is 40 to 59% at MAPKAPK2; 40 to 59% at CSNK1A1; 40 to 59% against CAMK2D; 40 to 59% on ERK5; 40 to 59% against CAMKK2; not below 59% against JNK1. The inhibition at 1 µM was not below 59% against LTK; 40 to 59% at INSR; not below 59% on PHKG2; 40 to 59% in test [4]; not below 59% against cSNK1D; 40 to 59% against LRRK2. For the same compound, the inhibition at 1 µM is 40 to 59% against CHEK2; not below 59% against GAK; not below 59% on PAK2; not below 59% against MYLK; 40 to 59% on JNK2; not below 59% at PHKG1. Moreover, in the test on EMT6 breast cancer, the tumor suppression effect result was “insignificant tumor suppression effect”.

As a reminder, the inhibition is the change of the read-out against control, counted positive when it falls. Read a low inhibition as a response near the control.
